Values after ≈ are worked out from the molar mass of the structure shown.
What was measured:
Salmonella typhimurium [1] = experiment: Genotoxicity in Salmonella typhimurium TA98 in presence of aroclor-1254-induced rat S9 fraction by Ames test; format: toxicity, organism-based; settings: salmonella enterica subsp. enterica serovar typhimurium
Vitamin D3 receptor = biological target: T1, Vitamin D3 receptor (Homo sapiens, UniProt P11473)
T1 sequence (P11473 whole entry): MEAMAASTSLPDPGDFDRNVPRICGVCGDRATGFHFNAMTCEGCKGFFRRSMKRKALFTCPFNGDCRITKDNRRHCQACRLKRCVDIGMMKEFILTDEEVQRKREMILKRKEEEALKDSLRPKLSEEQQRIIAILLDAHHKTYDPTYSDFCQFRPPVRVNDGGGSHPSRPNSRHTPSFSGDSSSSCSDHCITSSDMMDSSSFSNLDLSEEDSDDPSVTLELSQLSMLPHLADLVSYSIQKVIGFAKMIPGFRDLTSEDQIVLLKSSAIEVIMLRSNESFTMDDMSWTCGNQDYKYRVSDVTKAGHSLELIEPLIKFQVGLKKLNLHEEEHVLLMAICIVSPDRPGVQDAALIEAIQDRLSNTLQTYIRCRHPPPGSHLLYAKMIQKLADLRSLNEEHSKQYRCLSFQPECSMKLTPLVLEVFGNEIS
Description: Activity at VDR expressed in human HeLa-derived HDLN6 cells assessed as inhibition of transcriptional activity after 18 hrs by luminescence-based luciferase reporter gene assay

Salmonella typhimurium [2] = experiment: Genotoxicity in Salmonella typhimurium TA100 in absence of aroclor-1254-induced rat S9 fraction by Ames test; format: toxicity, organism-based; settings: salmonella enterica subsp. enterica serovar typhimurium
[3] = biological target: T2, Retinoic acid receptor gamma (Homo sapiens, UniProt P13631); experiment: Inverse agonist activity at RARgamma (unknown origin) expressed in human HeLa-derived HG5LN cells transfected with the GAL4 DNA-binding domain fused to the RARgamma ligand-binding domain assessed as inhibition of transcriptional activity after 18 hrs by luminescence-based luciferase reporter gene assay; format: cell-based
T2 sequence (P13631 whole entry): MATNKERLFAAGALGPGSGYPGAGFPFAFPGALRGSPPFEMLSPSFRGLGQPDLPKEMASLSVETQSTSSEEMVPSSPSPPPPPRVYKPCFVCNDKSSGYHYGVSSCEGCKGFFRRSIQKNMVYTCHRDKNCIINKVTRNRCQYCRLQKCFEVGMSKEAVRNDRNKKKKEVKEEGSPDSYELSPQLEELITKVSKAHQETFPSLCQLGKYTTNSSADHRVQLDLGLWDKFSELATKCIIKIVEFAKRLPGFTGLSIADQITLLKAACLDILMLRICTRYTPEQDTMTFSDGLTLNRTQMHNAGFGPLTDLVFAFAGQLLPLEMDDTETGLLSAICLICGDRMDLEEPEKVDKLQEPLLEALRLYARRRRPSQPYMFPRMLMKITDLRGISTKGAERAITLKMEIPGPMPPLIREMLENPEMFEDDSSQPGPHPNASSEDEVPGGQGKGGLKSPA

[4] = Solubility of the compound in PG/EtOH96 (3/7) solution incubated for 24 hrs by UV spectrometry; format: physicochemical
[5] = Intrinsic clearance in human hepatocytes assessed per million cells at 1 uM incubated for 5 to 90 mins by LC-MS/MS method; format: ADME, cell-based, Hepatocyte; settings: read-out: CLH
TK6 = experiment: Genotoxicity in human TK6 cells incubated for 3 hrs in absence of aroclor-1254-induced rat S9 fraction followed by 27 hrs recovery period by Giemsa staining dependent optical microscopy based micronucleus test; format: toxicity, cell-based; settings: tk6, 3 h

CCc1ccc(N(CC(C)C)S(=O)(=O)c2ccc(OCC3CCOCC3)c([S@@](C)(=N)=O)c2)cc1
Activity (Salmonella typhimurium [1]): Non-Toxic
Kd (Vitamin D3 receptor): > 10 µM
Activity (Salmonella typhimurium [2]): Non-Toxic
IC50 [3]: > 10 µM
solubility at 24 h [4]: 31 mM (≈ 15.8 mg/mL)
hepatocyte CLint at 1 µM [5]: 180 µL/min/1e6 cells
Activity (TK6): Non-Toxic

Source: ChEMBL document CHEMBL4219169, “Sulfoximines as potent RORγ inverse agonists” (Bioorg Med Chem Lett, 2018)
